Values joined by “and” are separate entries in the source; they are usually repeats but may differ in a detail not shown here. Equal entries are not always repeated.
Legend:
IGF-1 [1] = assay: Plasma IGF-1 level in eight CFS patients treated with the composition (Example 1); format: in vivo, human
Method: Eight patients suffering from severe chronic fatigue syndrome (CFS) were studied over a 5- to 7-month period. In this period, they were treated with a therapeutical composition of the disclosure in the form of a food supplement, which comprised IAA as the active ingredient. All subjects were unable to do their job or to perform very light physical exercise.
Before entering the study, the subjects underwent a careful medical examination to exclude any other disease. Blood was assayed for insulin-like growth factor 1 (IGF-1) and its major binding protein IGF-BP3 was sampled at 0, 1, 3 and 5 to 7 months of treatment because the total amount of IGF-1 in serum minus the amount of IGF-BP3 is the amount of free IGF-1. Free IGF-1 is the active serum fraction. Also at 0, 1, 3 and 5 to 7 months, job participation and physical activities were registered and calculated as percentage of normal, before disease pattern.
Eight women varying in age from 25 to 53 years having severe complaints of fatigue that made it impossible to function normally, both at work and in free time. All reported an excessive need for sleep, which was never refreshing even though it was prolonged (more than 12 hours). After excluding all other diseases and infections, they were all diagnosed for CFS.
Blood samples of 20 ml were taken and liver and kidney functions, the red and white hemogram, IGF-1 and IGF-BP3 determined. The patients took 1000 mg/day (corresponding to 40 mg IAA and 960 mg salt and WPC 70) of the composition of the disclosure for 4 weeks. After this, the dosage was reduced by 250 mg (corresponding to 10 mg IAA) every 2 weeks to 750 mg/day, 500 mg/day 250 mg/day, respectively. […]
At the start of the study and at each check-up point, the work participation and physical activity pattern were scored on a scale from 1 to 10 and plotted as the percentage of the patient's normal activities. […] IGF-BP3 was determined by means of an immunoassay (DSL-5600 ACTIVE™, DSL Deutschland GmbH, Germany) having an intra-assay variance of 4.4% and an inter-assay variance of 6.6%. […]

IGF-1 [2] = assay: IgF-1 level in type 2 diabetic patients during medication with IAA (Example 4); format: in vivo, human
Source text: Five male type 2 diabetic patients took part in the study. They were all very difficult to regulate. When the study started, the average HbA1c was to be approximately 9.0%. The patients had no other clinical problems. In addition, the IgF-BP3/IgF-1 ratio had to be over 10. The age of the subjects were between 45 years and 75 years with an average of 58. The period of the investigation was 6 months. […] The following parameters were checked: IGF-1 and IGF-PB-3. Also, at the start, safety parameters (liver tests, hematology) were determined. Every 8 weeks, HbA1c was determined.
All samples from one subject were analyzed in the same run to avoid intra-assay variability. Quantification of IGF-1 was performed using an immunoradiometric assay (IRMA) (DSL-5600 ACTIVE™, DSL, Germany GmbH, Germany). Intra- and inter-assay variance was: 4.0% and 9.2% and 1.5% for IGF-1. The Hba1c was analyzed on HPLC Menarine HA 81-60.
The total work output of every subject was calculated with a 2-way ANOVA for repeated measures and the hormone values were analyzed with the Wilcoxon test. In all cases, a p value of <0.05 was accepted as significant.

athletes = assay: Performance and recovery of athletes (Example 6); format: in vivo, human; settings: group that received IAA; 12 weeks intensive training; placebo performances decreased
Method: Twenty athletes entered the study. Other medication was excluded from the research. The period of the treatment was 12 weeks. They were not allowed to take any other medication or food supplements. They continued their level of training. After 2 weeks, the training was intensified by 25%. At baseline, at the start, after 2 weeks, 4 weeks, 6 weeks, 8 weeks, 10 weeks and 12 weeks, IGF-1 and safety parameters (liver tests, hematology) were determined. The group was divided into two groups of ten athletes. Group A received IAA; group B got a placebo.
The following schedule was used for the supplements. 1 IAA capsule contained 10 mg IAA, 100 mg NaCl, 140 mg WPC 70. One Glutamine capsule contained 500 mg glutamine. The amino acids that were taken are as described in Table 1.

IGF-1 [3] = assay: IGF-1 concentration in problem piglets (group P) with history of PRRSV treated with IAA (Example 9); format: in vivo, Belgian Land Race piglets; settings: for IGF-1: group P piglets, acetic acid
Method: The piglets were weaned at four weeks and relocated, twelve piglets per pen. IGF-1 levels from three different groups were tested at the age of five weeks.
These are the pigs with the big problems. They are looking poor, have a low weight, bad color and some of them have Staphylococcus infections. It was the firm belief of the farmer and the veterinarian that these piglets would not reach the end of the fattening cycle. Blood samples were taken at random from five of the twelve piglets.
After seeing the low IGF-1 levels in group P, it was decided to give them the same treatment as in humans with CFS. The average weight of the piglets would have been around seven kilos at five weeks of age. They were treated with 125 mg of the composition comprising 5 mg IAA and 120 mg NaCl and WPC 70 for ten days. The product was fed in a trough, mixed in liquid feed. All the piglets ate from the same trough.
After ten days of treatment, random blood samples were taken from the different groups. A code was added for the size of the animals (K=small; N=normal; Z=heavy).
At random, IGF-1 concentrations of five piglets of this group were measured.
Three weeks later, blood samples were again taken, but only from the problem group.

indole acetic acid [IAA]
plasma IGF-1 level (mean±SD) (IGF-1 [1]; after 1 month): 29.5 ± 8.2 nmol/L
plasma IGF-1 level (mean±SD) (IGF-1 [1]; after 5 months of treatment): 35 ± 10 nmol/L
plasma IGF-1 level (mean±SD) (IGF-1 [1]; before treatment (baseline)): 18 ± 5 nmol/L
IgF-1 level, average (IGF-1 [2]; Month 0 (start), average of 5 subjects, acetic acid): 10.8 nmol/L and 10.7 nmol/L
IgF-1 level (IGF-1 [2]; Month 0 (start), individual subjects, acetic acid): 11.1 nmol/L and 9.6 nmol/L and 10.4 nmol/L and 11.2 nmol/L and 11.3 nmol/L
IgF-1 level, average (IGF-1 [2]; Month 1, average of 5 subjects): 11.4 nmol/L
IgF-1 level (IGF-1 [2]; Month 1, individual subjects, acetic acid): 12.5 nmol/L and 10.1 nmol/L and 10.8 nmol/L and 11.6 nmol/L and 12.0 nmol/L
IgF-1 level, average (IGF-1 [2]; Month 2, average of 5 subjects): 12.0 nmol/L
IgF-1 level (IGF-1 [2]; Month 2, individual subjects, acetic acid): 13.1 nmol/L and 10.6 nmol/L and 11.6 nmol/L and 11.9 nmol/L and 12.6 nmol/L
IgF-1 level, average (IGF-1 [2]; Month 3, average of 5 subjects): 12.5 nmol/L
IgF-1 level (IGF-1 [2]; Month 3, individual subjects, acetic acid): 13.8 nmol/L and 11.1 nmol/L and 12.1 nmol/L and 12.3 nmol/L and 13.0 nmol/L
IgF-1 level, average (IGF-1 [2]; Month 4, average of 5 subjects): 13.0 nmol/L
IgF-1 level (IGF-1 [2]; Month 4, individual subjects, acetic acid): 14.3 nmol/L and 11.8 nmol/L and 12.6 nmol/L and 12.8 nmol/L and 13.5 nmol/L
IgF-1 level, average (IGF-1 [2]; Month 5, average of 5 subjects): 13.5 nmol/L
IgF-1 level (IGF-1 [2]; Month 5, individual subjects, acetic acid): 14.9 nmol/l and 12.1 nmol/l and 13.3 nmol/l (2×) and 13.9 nmol/l
IgF-1 level, average (IGF-1 [2]; Month 6, average of 5 subjects): 14.1 nmol/L
IgF-1 level (IGF-1 [2]; Month 6, individual subjects, acetic acid): 15.2 nmol/L and 12.9 nmol/L and 13.9 nmol/L and 14.4 nmol/L and 14.3 nmol/L
performance of athletes at the end (athletes): performed better
IGF-1 (IGF-1 [3]; age five weeks, before treatment (baseline), random individual piglets): 2.3 nmol/l and <0.5 nmol/l (2×) and 2.0 nmol/l and 1.8 nmol/l
IGF-1 (IGF-1 [3]; after ten days of treatment (125 mg composition = 5 mg IAA), random individual piglets): 0.8 nmol/l and <0.5 nmol/l (3×) and 4.2 nmol/l
IGF-1 (IGF-1 [3]; three weeks later, treatment stopped, individual piglets): 55.6 nmol/L and 30.0 nmol/L and 23.4 nmol/L and 65.1 nmol/L and 13.7 nmol/L and 60.1 nmol/L and 36.9 nmol/L
change of IGF-1 levels (IGF-1 [3]; group P, after ten days of treatment): did not rise

Source: patent US10716778B2, “Use of compounds that are able to increase the serum IGF-1 level for the preparation of a therapeutical composition for treatment of various disease states associated with a reduced IGF-1 serum level in humans and animals” (VEIJLEN N.V., priority 2003, dated 2020)
